In ChEMBL document CHEMBL3525961, “Identification of human UDP-glucuronosyltransferases involved in N-carbamoyl glucuronidation of lorcaserin” (Drug Metab Dispos, 2012):

Columns and labels:
Liver microsome [1] = experiment: Drug metabolism in human liver microsomes assessed as N-carbamoyl glucuronide formation; assay type: ADME
Liver microsome [2] = experiment: Drug metabolism in human liver microsomes assessed as N-carbamoyl glucuronide formation per mg protein; assay type: ADME
Liver microsome [3] = experiment: Drug metabolism in human liver microsomes assessed as intrinsic clearance for N-carbamoyl glucuronide formation per mg protein; assay type: ADME
[4] = target: T1, UDP-glucuronosyltransferase 1A9 (Homo sapiens, UniProt O60656); experiment: Activity of human recombinant UGT1A9 expressed in insect cells assessed as intrinsic clearance for enzyme-mediated N-carbamoyl glucuronide formation per mg protein; assay type: ADME
T1 sequence (O60656 whole entry): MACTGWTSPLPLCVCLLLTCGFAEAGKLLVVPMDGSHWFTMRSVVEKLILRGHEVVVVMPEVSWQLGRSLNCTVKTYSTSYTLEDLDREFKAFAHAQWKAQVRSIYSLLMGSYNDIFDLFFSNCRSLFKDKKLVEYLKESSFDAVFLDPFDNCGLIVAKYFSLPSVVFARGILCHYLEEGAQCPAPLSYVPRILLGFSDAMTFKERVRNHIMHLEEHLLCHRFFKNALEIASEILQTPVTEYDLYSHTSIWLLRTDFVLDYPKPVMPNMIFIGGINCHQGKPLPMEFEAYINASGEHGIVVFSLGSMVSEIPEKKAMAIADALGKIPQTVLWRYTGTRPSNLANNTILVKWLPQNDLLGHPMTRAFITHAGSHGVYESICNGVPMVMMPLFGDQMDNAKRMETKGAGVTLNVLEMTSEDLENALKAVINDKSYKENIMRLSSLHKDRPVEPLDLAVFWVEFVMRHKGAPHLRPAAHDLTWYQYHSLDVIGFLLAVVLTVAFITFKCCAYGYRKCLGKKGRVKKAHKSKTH

[5] = target: T2, UDP-glucuronosyltransferase 2B7 (Homo sapiens, UniProt P16662); experiment: Activity of human recombinant UGT2B7 expressed in insect cells assessed as intrinsic clearance for enzyme-mediated N-carbamoyl glucuronide formation per mg protein; assay type: ADME
T2 sequence (P16662 whole entry): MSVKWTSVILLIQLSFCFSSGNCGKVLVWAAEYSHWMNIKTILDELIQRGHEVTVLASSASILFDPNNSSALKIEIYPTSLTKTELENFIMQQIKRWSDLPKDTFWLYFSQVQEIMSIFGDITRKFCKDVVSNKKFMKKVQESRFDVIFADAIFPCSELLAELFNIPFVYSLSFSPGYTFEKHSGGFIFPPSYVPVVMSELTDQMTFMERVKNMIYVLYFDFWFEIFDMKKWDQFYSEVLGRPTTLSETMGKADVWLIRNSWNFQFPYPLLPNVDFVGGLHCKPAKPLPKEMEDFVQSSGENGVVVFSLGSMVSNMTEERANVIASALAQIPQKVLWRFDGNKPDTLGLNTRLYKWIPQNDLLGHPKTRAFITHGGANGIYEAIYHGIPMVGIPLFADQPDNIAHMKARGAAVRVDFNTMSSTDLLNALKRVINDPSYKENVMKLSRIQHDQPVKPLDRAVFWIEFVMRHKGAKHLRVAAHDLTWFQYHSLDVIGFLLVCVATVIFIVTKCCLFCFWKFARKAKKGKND

[6] = target: T3, UDP-glucuronosyltransferase 2B15 (Homo sapiens, UniProt P54855); experiment: Activity of human recombinant UGT2B15 expressed in insect cells assessed as intrinsic clearance for enzyme-mediated N-carbamoyl glucuronide formation per mg protein; assay type: ADME
T3 sequence (P54855 whole entry): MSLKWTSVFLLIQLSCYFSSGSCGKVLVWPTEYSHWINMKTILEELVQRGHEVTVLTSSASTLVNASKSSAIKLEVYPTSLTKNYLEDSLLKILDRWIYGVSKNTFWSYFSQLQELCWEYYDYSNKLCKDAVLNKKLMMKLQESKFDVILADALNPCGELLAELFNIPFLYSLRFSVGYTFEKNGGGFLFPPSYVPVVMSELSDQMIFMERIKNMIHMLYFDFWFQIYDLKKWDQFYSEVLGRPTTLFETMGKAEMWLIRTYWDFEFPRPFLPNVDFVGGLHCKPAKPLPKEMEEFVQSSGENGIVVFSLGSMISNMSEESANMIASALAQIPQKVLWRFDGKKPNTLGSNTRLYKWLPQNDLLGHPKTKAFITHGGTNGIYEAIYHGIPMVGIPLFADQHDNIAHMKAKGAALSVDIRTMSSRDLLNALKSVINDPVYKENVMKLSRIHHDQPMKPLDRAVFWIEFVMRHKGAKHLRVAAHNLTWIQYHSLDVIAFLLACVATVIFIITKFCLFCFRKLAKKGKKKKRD

[7] = target: T4, UDP-glucuronosyltransferase 2B17 (Homo sapiens, UniProt O75795); experiment: Activity of human recombinant UGT2B17 expressed in insect cells assessed as intrinsic clearance for enzyme-mediated N-carbamoyl glucuronide formation per mg protein; assay type: ADME
T4 sequence (O75795 whole entry): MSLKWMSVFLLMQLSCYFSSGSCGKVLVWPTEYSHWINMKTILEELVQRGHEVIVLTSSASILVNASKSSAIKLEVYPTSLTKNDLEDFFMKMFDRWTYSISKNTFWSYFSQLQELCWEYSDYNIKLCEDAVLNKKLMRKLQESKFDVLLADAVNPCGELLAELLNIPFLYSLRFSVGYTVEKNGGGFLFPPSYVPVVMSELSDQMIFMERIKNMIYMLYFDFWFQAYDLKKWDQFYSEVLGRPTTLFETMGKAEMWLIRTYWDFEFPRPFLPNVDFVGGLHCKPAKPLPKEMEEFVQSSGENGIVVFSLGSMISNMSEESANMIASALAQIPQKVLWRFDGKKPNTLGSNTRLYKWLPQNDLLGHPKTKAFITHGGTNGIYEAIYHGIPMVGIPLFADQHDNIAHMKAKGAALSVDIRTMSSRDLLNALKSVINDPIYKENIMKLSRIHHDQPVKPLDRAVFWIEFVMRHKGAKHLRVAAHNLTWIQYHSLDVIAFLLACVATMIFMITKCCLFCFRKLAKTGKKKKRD

Liver = experiment: Drug metabolism in human liver assessed as N-carbamoyl glucuronide formation per mg protein at 100 uM; assay type: ADME, tissue-based
[8] = Drug metabolism in human kidney assessed as N-carbamoyl glucuronide formation per mg protein at 100 uM; assay type: ADME, tissue-based
[9] = Drug metabolism in human intestine assessed as N-carbamoyl glucuronide formation per mg protein at 100 uM; assay type: ADME, tissue-based
[10] = Drug metabolism in smoking human lung assessed as N-carbamoyl glucuronide formation per mg protein at 100 uM; assay type: ADME, tissue-based
[11] = Drug metabolism in non-smoking human lung assessed as N-carbamoyl glucuronide formation per mg protein at 100 uM; assay type: ADME, tissue-based
[12] = target: T5, UDP-glucuronosyltransferase 1A6 (Homo sapiens, UniProt P19224); experiment: Activity of human recombinant UGT1A6 expressed in insect cells assessed as intrinsic clearance for enzyme-mediated N-carbamoyl glucuronide formation; assay type: ADME
T5 sequence (P19224 whole entry): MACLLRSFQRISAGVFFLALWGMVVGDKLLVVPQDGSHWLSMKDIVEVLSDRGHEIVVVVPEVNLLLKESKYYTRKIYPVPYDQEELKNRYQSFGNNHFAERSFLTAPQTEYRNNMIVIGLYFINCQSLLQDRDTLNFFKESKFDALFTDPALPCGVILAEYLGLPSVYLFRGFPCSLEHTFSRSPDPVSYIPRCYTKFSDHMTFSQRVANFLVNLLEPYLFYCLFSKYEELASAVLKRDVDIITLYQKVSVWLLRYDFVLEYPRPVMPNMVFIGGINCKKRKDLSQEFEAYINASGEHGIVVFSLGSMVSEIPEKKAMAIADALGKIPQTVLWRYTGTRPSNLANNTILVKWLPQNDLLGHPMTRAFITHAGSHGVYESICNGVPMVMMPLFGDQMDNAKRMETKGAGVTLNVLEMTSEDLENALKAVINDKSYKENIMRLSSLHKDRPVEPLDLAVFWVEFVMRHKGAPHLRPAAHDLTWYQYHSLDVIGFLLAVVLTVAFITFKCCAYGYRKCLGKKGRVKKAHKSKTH

[13] = target: T1, UDP-glucuronosyltransferase 1A9; experiment: Activity of human recombinant UGT1A9 expressed in insect cells assessed as intrinsic clearance for enzyme-mediated N-carbamoyl glucuronide formation; assay type: ADME
[14] = target: T2, UDP-glucuronosyltransferase 2B7; experiment: Activity of human recombinant UGT2B7 expressed in insect cells assessed as intrinsic clearance for enzyme-mediated N-carbamoyl glucuronide formation; assay type: ADME
[15] = target: T3, UDP-glucuronosyltransferase 2B15; experiment: Activity of human recombinant UGT2B15 expressed in insect cells assessed as intrinsic clearance for enzyme-mediated N-carbamoyl glucuronide formation; assay type: ADME
[16] = target: T4, UDP-glucuronosyltransferase 2B17; experiment: Activity of human recombinant UGT2B17 expressed in insect cells assessed as intrinsic clearance for enzyme-mediated N-carbamoyl glucuronide formation; assay type: ADME
Liver microsome [17] = experiment: Drug metabolism in human liver microsomes assessed as 100 uM eugenol-mediated inhibition of N-carbamoyl glucuronide formation at 1 uM; assay type: ADME
Liver microsome [18] = experiment: Drug metabolism in human liver microsomes assessed as 25 uM bisphenol-mediated inhibition of N-carbamoyl glucuronide formation at 100 uM; assay type: ADME
Liver microsome [19] = experiment: Drug metabolism in human liver microsomes assessed as 100 uM eugenol-mediated inhibition of N-carbamoyl glucuronide formation at 100 uM; assay type: ADME
Liver microsome [20] = experiment: Drug metabolism in human liver microsomes assessed as N-carbamoyl glucuronide formation at 100 uM in presence of 5 uM mefenamic acid; assay type: ADME
Liver microsome [21] = experiment: Drug metabolism in human liver microsomes assessed as N-carbamoyl glucuronide formation at 100 uM in presence of 5 uM bisphenol; assay type: ADME
Liver microsome [22] = experiment: Drug metabolism in human liver microsomes assessed as N-carbamoyl glucuronide formation at 100 uM in presence of 20 uM eugenol; assay type: ADME

## C[C@H]1CNCCc2ccc(Cl)cc21.Cl.O
Liver microsome [1]
  Km: 128 µM
Liver microsome [2]
  Vmax: 2379.2 pmol/min
Liver microsome [3]
  CLH: 18.57 µL/min/g
[4]
  CL: 0.199 µL/min/g
[5]
  CL: 1.987 µL/min/g
[6]
  CL: 4.601 µL/min/g
[7]
  CL: 0.611 µL/min/g
Liver
  Drug metabolism: 1028 pmol/min
[8]
  Drug metabolism: 185.9 pmol/min
[9]
  Drug metabolism: 133.1 pmol/min
[10]
  Drug metabolism: 1.116 pmol/min
[11]
  Drug metabolism: 0.493 pmol/min
[12]
  Drug metabolism: metabolite_detected
[13]
  Drug metabolism: metabolite_detected
[14]
  Drug metabolism: metabolite_detected
[15]
  Drug metabolism: metabolite_detected
[16]
  Drug metabolism: metabolite_detected
Liver microsome [17]
  inhibition (INH): 18%
Liver microsome [18]
  inhibition (INH): 30%
Liver microsome [19]
  inhibition (INH): 11%
Liver microsome [20]
  Drug metabolism: metabolite_detected
Liver microsome [21]
  Drug metabolism: metabolite_detected
Liver microsome [22]
  Drug metabolism: metabolite_detected
